{"source": "patent EP0626016B1", "about": "“[…] […]” (BRITISH TECHNOLOGY GROUP LIMITED, priority 1992, dated 1993)", "key": {"HRP Type VIA": {"molecular_target": "T1, HRP Type VIA (Armoracia rusticana, UniProt P00433)", "T1 sequence (P00433 31-338)": "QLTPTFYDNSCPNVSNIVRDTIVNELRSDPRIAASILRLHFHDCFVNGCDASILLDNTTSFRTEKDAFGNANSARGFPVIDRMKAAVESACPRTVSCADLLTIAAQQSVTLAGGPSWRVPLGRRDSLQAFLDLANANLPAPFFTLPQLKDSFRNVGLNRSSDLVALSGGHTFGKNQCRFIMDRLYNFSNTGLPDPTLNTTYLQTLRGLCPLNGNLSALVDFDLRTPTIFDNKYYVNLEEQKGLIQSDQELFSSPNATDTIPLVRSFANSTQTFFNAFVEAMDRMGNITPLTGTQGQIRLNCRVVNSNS", "assay": "Effect of organoboron compounds on the luminol-hydrogen peroxide-HRP chemiluminescent reaction (Example 2)", "assay_type": "biochemical, horseradish", "set-up": "purchased Sigma Chemical Co", "settings": "test", "experimental": "The stock solution of HRP Type VIA (1mg/ml) and luminol-hydrogen peroxide reagent were prepared as described previously. Luminol-hydrogen peroxide (100µl, 1:10 dilution) was mixed with either 10µl of HRP (1:50,000 dilution) or, 10µl of Tris buffer (0.1mol/l, pH 8.6). […] A control without any test compound was run in parallel.\nThe control consisted of buffer in place of the compound under test as an enhancer. […]"}, "HRP": {"molecular_target": "T2, HRP (Armoracia rusticana, UniProt P00433)", "T2 construct": "purchased Sigma Chemical Co", "T2 sequence (P00433 31-338)": "T1 sequence (P00433 31-338)", "assay": "PIBA enhancement of the HRP-luminol-peroxide reaction (Example 7)", "assay_type": "biochemical, horseradish", "settings": "for Signal: Background ratio: at 1 minute", "experimental": "PBBA was added in various concentrations (range 0.05µg to 0.5µg) to a luminol-H2O2 reaction in the presence and absence of HRP. The luminol-hydrogen peroxide reagent was prepared as follows: sodium luminol (12.5mg) was dissolved in 50ml of Tris buffer (0.1mol/l, pH 8.6), and 15.5µl of hydrogen peroxide (30% w/v) was mixed with 0.5ml of Tris buffer (0.lmol/l, pH 8.6). These two solutions were combined and protected from light. The luminol-hydrogen peroxide reagent (100µl of a 1:10 dilution) was added to a cuvette together with either 10µl of HRP Type VI A (HRP, Sigma Chemical Co., 1:50,000 dilution) or as a control 10µl of Tris Buffer (0.1mol/l, pH 8.6), and various amounts of PBBA (Aldrich Chemical Co.), range 0.05µg-0.5µg in 0.1mol/l Tris, pH 8.6). […]\nThe experiment of Example 1 was repeated using PIBA in place of PBBA. Various dilutions of PIBA (Cookson Chemicals Ltd., Southampton, UK, 1mg/ml stock in DMSO) in Tris buffer were used. […]"}}, "data": [{"molecule": "OB(O)c1ccc(Cl)cc1Cl", "note": "[Compound 5002, 2,4-dichlorophenylboronic acid]", "values": [{"measurement": "Signal (no HRP)", "setting": "HRP Type VIA; 5µl of 1mg/ml compound", "value": "16,246"}, {"measurement": "Signal (with HRP)", "setting": "HRP Type VIA; 5µl of 1mg/ml compound", "value": "128,274"}, {"measurement": "Signal: Background ratio", "setting": "HRP Type VIA; 5µl of 1mg/ml compound", "value": 7.9}]}, {"molecule": "OB(O)c1ccccc1", "note": "[Compound 5004, phenylboronic acid]", "values": [{"measurement": "Signal (no HRP)", "setting": "HRP Type VIA; 5µl of 1mg/ml compound", "value": "5,601"}, {"measurement": "Signal (with HRP)", "setting": "HRP Type VIA; 5µl of 1mg/ml compound", "value": "54,554"}, {"measurement": "Signal: Background ratio", "setting": "HRP Type VIA; 5µl of 1mg/ml compound", "value": 9.7}]}, {"molecule": "OB(O)c1ccc(I)cc1", "note": "[PIBA, para-iodophenylboronic acid]", "values": [{"measurement": "Light emission at 1 minute, Background", "setting": "HRP; PIBA 0.01 µg", "value": "12,862"}, {"measurement": "Light emission at 1 minute, Signal", "setting": "HRP; PIBA 0.01 µg", "value": "78,419"}, {"measurement": "Signal: Background ratio", "setting": "HRP; PIBA 0.01 µg", "value": 6.1}, {"measurement": "Light emission at 1 minute, Background", "setting": "HRP; PIBA 0.1 µg", "value": "13,221"}, {"measurement": "Light emission at 1 minute, Signal", "setting": "HRP; PIBA 0.1 µg", "value": "74,487"}, {"measurement": "Signal: Background ratio", "setting": "HRP; PIBA 0.1 µg", "value": 7.1}, {"measurement": "Light emission at 1 minute, Background", "setting": "HRP; PIBA 1 µg", "value": "10,282"}, {"measurement": "Light emission at 1 minute, Signal", "setting": "HRP; PIBA 1 µg", "value": "324,312"}, {"measurement": "Signal: Background ratio", "setting": "HRP; PIBA 1 µg", "value": 31.5}, {"measurement": "Light emission at 1 minute, Background", "setting": "HRP; PIBA 10 µg", "value": "5,517"}, {"measurement": "Light emission at 1 minute, Signal", "setting": "HRP; PIBA 10 µg", "value": "540,760"}, {"measurement": "Signal: Background ratio", "setting": "HRP; PIBA 10 µg", "value": 98}, {"measurement": "Light emission at 1 minute, Background", "setting": "HRP; PIBA 20 µg", "value": "3,837"}, {"measurement": "Light emission at 1 minute, Signal", "setting": "HRP; PIBA 20 µg", "value": "135,065"}, {"measurement": "Signal: Background ratio", "setting": "HRP; PIBA 20 µg", "value": 35.2}]}, {"molecule": "butaneborinic acid [Compound 5005]", "values": [{"measurement": "Signal (no HRP)", "setting": "HRP Type VIA; 40µl of 1mg/ml compound", "value": "54,389"}, {"measurement": "Signal (with HRP)", "setting": "HRP Type VIA; 40µl of 1mg/ml compound", "value": "65,197"}, {"measurement": "Signal: Background ratio", "setting": "HRP Type VIA; 40µl of 1mg/ml compound", "value": 1.2}]}]}
